Reference: US8148391B2 (Cephalon, Inc., priority 2006, dated 2012)
Read-outs that look alike come from different tables or passages of the source.

What was measured:
[1] = target: T1, baculovirus-expressed ALK (Homo sapiens, UniProt Q9UM73); experiment: ALK Kinase Assay (ELISA-type, time-resolved fluorescence); format: biochemical; settings: 1 μM ATP (Km level)
T1 construct: host or cells: baculovirus expression system
How it was run: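 Substrate coating: phospholipase C-γ, 10 μg/mL in TBS. Kinase step: 30 ng/ml ALK, 15 min, 37° C. Detection and analysis: Eu-N1 PT66 antibody, with IC50 fitted as a sigmoidal variable-slope dose-response curve.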

[2] = target: T2, c-Met (cytoplasmic domain) (Homo sapiens, UniProt P08581); experiment: c-Met Kinase Assay (same methods as for ALK, with modifications); format: biochemical; settings: 1 μM ATP (Km level)
T2 construct: 10 ng/mL c-Met (cytoplasmic domain, Invitrogen Corporation #PV3143); purchased Invitrogen Corporation PV3143
How it was run: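 Wells were coated with 10 μg/mL phospholipase C-γ substrate in TBS, and reactions were started with 10 ng/mL c-Met cytoplasmic domain and run at 37° C for 15 minutes. Phosphorylated product was detected with Eu-N1-labeled PT66 antibody. IC50 values came from sigmoidal variable-slope fits of percent inhibition versus log compound concentration.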

[3] = read-out: ALK Activity (ALK Kinase Inhibition, IC50)
[4] = read-out: cMet Activity (c-Met Kinase Inhibition, IC50)
[5] = 30 ng/ml ALK, 37° C., 15 minutes, read-out: ALK Activity (ALK kinase inhibition, IC50 class)
[6] = 10 ng/mL c-Met, read-out: cMet Activity (c-Met kinase inhibition, IC50 class)

T2 sequence (P08581 956-1390 limits assumed): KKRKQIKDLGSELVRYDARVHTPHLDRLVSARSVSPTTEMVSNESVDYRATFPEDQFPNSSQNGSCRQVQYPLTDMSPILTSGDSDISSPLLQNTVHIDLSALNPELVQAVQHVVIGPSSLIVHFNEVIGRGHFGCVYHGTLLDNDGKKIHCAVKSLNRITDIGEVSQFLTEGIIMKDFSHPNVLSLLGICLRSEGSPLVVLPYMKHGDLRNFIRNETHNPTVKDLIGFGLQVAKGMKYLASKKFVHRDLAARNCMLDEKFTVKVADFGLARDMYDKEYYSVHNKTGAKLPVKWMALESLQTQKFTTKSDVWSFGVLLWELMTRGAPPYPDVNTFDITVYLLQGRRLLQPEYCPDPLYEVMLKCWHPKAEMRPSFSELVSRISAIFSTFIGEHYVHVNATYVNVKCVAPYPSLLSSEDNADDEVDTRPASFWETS
T1 sequence (Q9UM73 19-1620): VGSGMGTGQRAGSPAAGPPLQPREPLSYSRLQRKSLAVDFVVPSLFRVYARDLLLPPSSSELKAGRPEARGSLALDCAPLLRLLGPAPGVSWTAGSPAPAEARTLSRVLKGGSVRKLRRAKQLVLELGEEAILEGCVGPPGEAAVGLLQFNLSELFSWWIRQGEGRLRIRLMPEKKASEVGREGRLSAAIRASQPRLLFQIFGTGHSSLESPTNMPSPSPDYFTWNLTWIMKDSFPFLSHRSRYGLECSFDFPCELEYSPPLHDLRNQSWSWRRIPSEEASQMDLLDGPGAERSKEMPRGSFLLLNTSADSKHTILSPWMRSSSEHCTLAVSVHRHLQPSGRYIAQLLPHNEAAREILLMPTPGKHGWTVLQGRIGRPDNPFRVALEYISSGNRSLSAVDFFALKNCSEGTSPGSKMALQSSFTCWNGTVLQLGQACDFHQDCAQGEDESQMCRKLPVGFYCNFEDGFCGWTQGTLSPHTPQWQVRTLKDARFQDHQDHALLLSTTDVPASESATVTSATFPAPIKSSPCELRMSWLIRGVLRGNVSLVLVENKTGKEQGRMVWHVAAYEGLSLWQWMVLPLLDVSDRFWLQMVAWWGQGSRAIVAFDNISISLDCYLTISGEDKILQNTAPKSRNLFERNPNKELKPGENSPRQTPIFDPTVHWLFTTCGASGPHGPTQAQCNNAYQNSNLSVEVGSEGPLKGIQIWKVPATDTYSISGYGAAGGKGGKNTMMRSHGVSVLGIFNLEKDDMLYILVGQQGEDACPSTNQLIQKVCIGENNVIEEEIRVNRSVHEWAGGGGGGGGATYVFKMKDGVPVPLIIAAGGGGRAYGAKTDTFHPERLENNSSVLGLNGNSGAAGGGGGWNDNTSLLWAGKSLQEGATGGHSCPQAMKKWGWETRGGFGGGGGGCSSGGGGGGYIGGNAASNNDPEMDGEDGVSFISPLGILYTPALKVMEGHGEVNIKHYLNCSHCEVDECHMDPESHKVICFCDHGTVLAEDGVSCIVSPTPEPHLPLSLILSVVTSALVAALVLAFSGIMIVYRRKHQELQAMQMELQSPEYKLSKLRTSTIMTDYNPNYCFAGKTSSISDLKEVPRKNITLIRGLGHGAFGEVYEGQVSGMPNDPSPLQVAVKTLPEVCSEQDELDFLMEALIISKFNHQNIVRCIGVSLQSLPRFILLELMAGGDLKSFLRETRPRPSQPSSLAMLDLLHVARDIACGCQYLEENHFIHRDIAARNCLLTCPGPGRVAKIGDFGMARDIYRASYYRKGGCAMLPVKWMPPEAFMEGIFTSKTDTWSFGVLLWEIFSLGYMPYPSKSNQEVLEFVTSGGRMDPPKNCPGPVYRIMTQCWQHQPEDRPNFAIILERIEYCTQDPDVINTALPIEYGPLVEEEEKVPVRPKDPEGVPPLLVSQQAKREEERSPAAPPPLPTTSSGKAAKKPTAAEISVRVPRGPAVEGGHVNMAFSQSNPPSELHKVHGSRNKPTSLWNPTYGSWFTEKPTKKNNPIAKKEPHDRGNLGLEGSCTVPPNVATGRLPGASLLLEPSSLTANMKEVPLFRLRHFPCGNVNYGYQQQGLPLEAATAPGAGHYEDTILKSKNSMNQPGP

IC50 [1, 3]	IC50 [2, 4]	IC50 [1, 5]	IC50 [2, 6]	Structure (SMILES)
< 100 nM	> 10000 nM			COc1cc2c(cc1Nc1ncc(Cl)c(Nc3ccccc3S(=O)(=O)N(C)C)n1)CCN(CC(F)F)CC2 [Example 822, 2-{5-Chloro-2-[3-(2,2-difluoro-ethyl)-8-methoxy-2,3,4,5-tetrahydro-1H-benzo[d]azepin-7-ylamino]-pyrimidin-4-ylamino}-N,N-dimethyl-benzenesulfonamide]
		< 100 nM	> 10000 nM	CCN1CCc2cc(Nc3ncc(Cl)c(Nc4ccc(N5CCOCC5)cc4OC)n3)c(OC)cc2CC1 [Example 1129, 5-Chloro-N*2*-(3-ethyl-8-methoxy-2,3,4,5-tetrahydro-1H-benzo[d]azepin-7-yl)-N*4*-(2-methoxy-4-morpholin-4-yl-phenyl)-pyrimidine-2,4-diamine]
< 100 nM	100 to 1000 nM			COc1ccc(Nc2nc(Nc3ccc4c(c3)C(C)(C)CCC(=O)N4C)ncc2Cl)c(-n2cccn2)c1 [Example 619, 7-[5-Chloro-4-(4-methoxy-2-pyrazol-1-yl-phenylamino)-pyrimidin-2-ylamino]-1,5,5-trimethyl-1,3,4,5-tetrahydro-benzo[b]azepin-2-one]
< 100 nM	> 10000 nM			COc1ccc(Nc2nc(Nc3cc4c(cc3OC)CCN(C(=O)C3COCCO3)CC4)ncc2Cl)c(-n2cccn2)c1 (centres unmarked) [Example 633, {7-[5-Chloro-4-(4-methoxy-2-pyrazol-1-yl-phenylamino)-pyrimidin-2-ylamino]-8-methoxy-1,2,4,5-tetrahydro-benzo[d]azepin-3-yl}-[1,4]dioxan-2-yl-methanone]
< 100 nM	> 10000 nM			COCCNC1CCc2cc(Nc3ncc(Cl)c(N[C@@H]4CCCC[C@H]4NS(C)(=O)=O)n3)c(OC)cc2CC1 (stereo partly drawn) [Example 895, N-((1R,2R)-2-{5-Chloro-2-[3-methoxy-7-(2-methoxy-ethylamino)-6,7,8,9-tetrahydro-5H-benzocyclohepten-2-ylamino]-pyrimidin-4-ylamino}-cyclohexyl)-methanesulfonamide]
< 100 nM	> 10000 nM			COc1cc2c(cc1Nc1ncc(Cl)c(Nc3ccc(N4CCOCC4)cc3OC)n1)CCN(CC(N)=O)CC2 [Example 799, 2-{7-[5-Chloro-4-(2-methoxy-4-morpholin-4-yl-phenylamino)-pyrimidin-2-ylamino]-8-methoxy-1,2,4,5-tetrahydro-benzo[d]azepin-3-yl}-acetamide]
< 100 nM	> 10000 nM			COc1c(Nc2ncc(Cl)c(Nc3ccccc3S(=O)(=O)N(C)C)n2)ccc2c1CCCC(N1CCOCC1)C2 (centres unmarked) [Example 944, 2-[5-Chloro-2-(1-methoxy-6-morpholin-4-yl-6,7,8,9-tetrahydro-5H-benzocyclohepten-2-ylamino)-pyrimidin-4-ylamino]-N,N-dimethyl-benzenesulfonamide]
< 100 nM	> 10000 nM			COc1ccc(Nc2nc(Nc3cc4c(cc3OC)CCN(CC(=O)N(C)C)CC4)ncc2Cl)c(S(=O)(=O)N(C)C)c1 [Example 820, 2-{7-[5-Chloro-4-(2-dimethylsulfamoyl-4-methoxy-phenylamino)-pyrimidin-2-ylamino]-8-methoxy-1,2,4,5-tetrahydro-benzo[d]azepin-3-yl}-N,N-dimethyl-acetamide]
		< 100 nM	> 10000 nM	CNC(=O)CN1CCc2cc(Nc3ncc(Cl)c(Nc4ccccc4OC)n3)c(OC)cc2CC1 [Example 1135, 2-{7-[5-Chloro-4-(2-methoxy-phenylamino)-pyrimidin-2-ylamino]-8-methoxy-1,2,4,5-tetrahydro-benzo[d]azepin-3-yl}-N-methyl-acetamide]
		< 100 nM	> 10000 nM	CCOc1ccccc1Nc1nc(Nc2cc3c(cc2OC)CCN(CC(=O)N(C)C)CC3)ncc1Cl [Example 1144, 2-{7-[5-Chloro-4-(2-ethoxy-phenylamino)-pyrimidin-2-ylamino]-8-methoxy-1,2,4,5-tetrahydro-benzo[d]azepin-3-yl}-N,N-dimethyl-acetamide]
